Structures are written as SMILES.

As a reminder, the EC50 is the midpoint of the concentration-response curve. A high value points to a need for much substance.

One series can be described thus: in vitro. The note with it: human. Here is the method:
Cytotoxicity of the compounds was evaluated over human monocytes (U-937 ATCC CRL-1593.2) in exponential growing phase and, adjusted at 1 × 10^5 cells/mL in RPMI-1640 enriched with 10% fetal bovine serum (FBS). One hundred microliters of cell suspension were dispensed in each well of a 96-wells microplate and then, 100 μL of each compound or standard drug (amphotericin B) at four serial dilution concentrations (200, 50, 12.5 and 3.125 μg/mL) were added dissolved in pbs with 0.5% DMSO. Cell exposed to compounds or standard drugs were incubated 72 h at 37 °C and 5% of CO2. Cytotoxic activity of each compound was determined according to the effect on the cell viability by the MTT microenzymatic method in which 3-(4,5-dimethylthiazol-2-yl)- 2,5-diphenyltetrazolium bromide is reduced to a purple product named formazan by mitochondrial enzyme succinate dehydrogenase. Thus, 10 μL/well of MTT solution (5 mg/mL) were added to each well of exposed and unexposed cells, and plates were incubated at 37 °C, 5% CO2 during 3 h. The reaction was stopped by adding 100 μL/well of isopropanol with 50% and 10% of SDS (sodium dodecyl sulfate). The concentration of formazan was determined spectrophotometrically at 570 nm (Varioskan Flash Multimode Reader, Thermo Scientific, Waltham, MA, USA) and intensity of color (absorbance) was registered as O.D. Cells exposed to control drug (amphotericin B) were used as control for toxicity (positive control) while cell incubated in absence of any compound or drug were used as control for viability (negative control). Non-specific absorbance was corrected by subtracting absorbance (O.D) of the blank. Determinations were done by triplicate in at least two independent experiments.
Cytotoxicity was determined according to viability and mortality percentages obtained for each experimental condition (synthetized compounds, amphotericin B and culture medium). Results were expressed as the mean lethal concentrations (LC50), concentration necessary to kill 50% of cells, calculated by the parametric method of linear regression that permits doses-response analysis (Probit analysis).
Initially, viability percentages were calculated by Equation (1), where the O.D of control well, corresponds to 100% of viability. % viability = (O.D exposed cells/O.D unexposed cells) × 100(1)
Then, the percentage of cell growth inhibition was calculated using Equation (2):% inhibition = 100 − (% Viability)(2)
The toxicity was defined according to LC50 values, using the follow scale: Toxic; LC50 < 100 μM; moderately toxic; LC50 > 100 μM and <200 μM and potentially nontoxic; LC50 > 200 μM.

The subject of series [1] is intracellular amastigotes of Leishmania panamensis (MHOM/CO/87/UA140-EGFP strain). Put plainly: In vitro antileishmanial activity on intracellular amastigotes (GFP, flow cytometry). Type of series: cell-based. Particulars: for EC50: Leishmania panamensis, U-937, 72 h, intracellular amastigotes of L. panamensis in U-937 cells, 72 h, mean ± SD; for SI (index of selectivity, IS = LC50/EC50): LC50 U-937 / EC50 L. panamensis amastigotes. Here is the method:
Antileishmanial activity of compounds was determined according to the ability of the compound to reduce the infection by L. panamensis parasites. For this, the antileishmanial activity was tested on intracellular amastigotes of L. panamensis transfected with the green fluorescent protein gene (MHOM/CO/87/UA140-EGFP strain). Briefly, U-937 human cells at a density of 3 × 10^5 cells/mL in RPMI 1640 and 0.1 μg/mL of PMA (phorbol-12-myristate-13-acetate) were dispensed on 24-wells microplate and then infected with stationary phase growing L. panamensis promastigotes in 15:1 parasites per cell ratio. Plates were incubated at 34 °C and 5% CO2 for 3 h and then cells were washed twice with phosphate buffer solution (PBS) to eliminate not internalized parasites. Fresh RPMI-1640 was added into each well (1 mL) and plates were incubated again. After 24 h of infection, the RPMI-1640 medium was replaced by fresh culture medium containing each compound at four serial dilutions (50, 12.5, 3.125 and 0.78 μg/mL) and plates were then incubated at 37 °C and 5% CO2 during 72 h, then, cells were removed from the bottom plate with 100 μL of EDTA/Trypsin (250 mg) solution. The cells were centrifuged at 1100 rpm during 10 min at 4 °C, the supernatant was discarded and cells were washed with 1 mL of cold PBS and centrifuged at 1100 rpm for 10 min at 4 °C. Cells were washed two times employing PBS, as previously, and after the last wash, the supernatant was discarded and cells were suspended in 500 μL of PBS.
Cells were analyzed by flow cytometry employing a flow cytometer (cytomics FC 500MPL, Beckman Coulter. Pasadena, CA, USA) reading at 488 nm (exciting) and 525 nm (emitting) over an argon laser and counting 10,000 events. Infected cells were determined according the events for green fluorescence (parasites). All determinations for each compound and standard drug were carried out by triplicate, in two experiments. Infected cells exposed to control drug (amphotericin B) were used as control for antileishmanial activity (positive control) while infected cells incubated in absence of any compound or drug were used as control for infection (negative control). Nonspecific fluorescence was corrected by subtracting fluorescence of unstained cells. Determinations were done by triplicate in at least two independent experiments.
Antileishmanial activity was determined according reduction of percentage of fluorescent parasites determined according to the median fluorescence intensity (MFI), obtained for each experimental condition by cytometry. The parasite values for each concentration of compound were calculated by Equation (3), where the % of parasites in the control well, corresponds to 100% of parasites. % parasites = (MFI exposed parasites/MFI unexposed parasites) × 100(3)
Then, inhibition percentage was calculated with Equation (4):% inhibition of parasites = 100 − (% parasites)(4)
Results of antileishmanial activities were expressed as the median effective concentrations (EC50) measured by Probit method.

In turn, `C[C@@H]1[C@H](O)[C@@H](C)/C=C/C=C/C=C/C=C/C=C/C=C/C=C/[C@H](O[C@@H]2O[C@H](C)[C@@H](O)[C@H](N)[C@@H]2O)C[C@@H]2O[C@](O)(C[C@@H](O)C[C@@H](O)[C@H](O)CC[C@@H](O)C[C@@H](O)CC(=O)O[C@H]1C)C[C@H](O)[C@H]2C(=O)O` [Amphotericin B, reference compound] came in with a CC50 at 72 h in “in vitro” of 39.6 ± 8.7 µM. The response in series [1] was half-maximal at 0.32 µM (EC50).

In “in vitro”, `CC1CC(=O)c2ccccc2S1` (stereo not shown) [Compound 1a, 2-Methylthiochroman-4-one] came in with a CC50 at 72 h of 604 ± 86.4 µM. Also, the “SI (index of selectivity, IS = LC50/EC50)” value in series [1] is 1.36.

As to `CC1CC(=O)c2cc(F)ccc2S1` (stereo not shown) [Compound 1b, 6-Fluoro-2-methylthiochroman-4-one], the CC50 at 72 h in the series “in vitro” came to 579 ± 59.1 µM. In addition, the “SI (index of selectivity, IS = LC50/EC50)” value in series [1] was found to be 1.37.

The compound `O=C1CCSc2ccc(F)cc21` [Compound 1c, 6-Fluorothiochroman-4-one] had a CC50 at 72 h in the series “in vitro” of 705 µM. For the same compound, in series [1], the “SI (index of selectivity, IS = LC50/EC50)” value is below 6.42 and the EC50 was above 110 µM.

Compound `O=C1CCSc2c1ccc1c2C(=O)CCS1` [Compound 1d, 2,3,8,9-Tetrahydro-4H,10H-thiopyran[2,3-f]thiochromene-4,10-dione] gave a CC50 at 72 h in “in vitro” of 279 ± 36.4 µM. In series [1], the “SI (index of selectivity, IS = LC50/EC50)” value was below 3.49 and the EC50 is above 80 µM.

Turning to `O=C1CC(C(=O)O)Sc2ccccc21` (stereo not shown) [Compound 1e, 4-Oxothiochroman-2-carboxylic acid], the CC50 at 72 h in “in vitro” amounted to 143 ± 16.8 µM. Further, in series [1], the “SI (index of selectivity, IS = LC50/EC50)” value is on record as below 1.48 and the EC50 was above 96.1 µM.

`O=C1CCSc2ccc([N+](=O)[O-])cc21` [Compound 1f, 6-Nitrothiochroman-4-one] returned a CC50 at 72 h in “in vitro” above 200 µM. This compound yielded an EC50 in series [1] above 95.6 µM.

For the compound `Nc1ccc2c(c1)C(=O)CCS2` [Compound 1g, 6-Aminothiochroman-4-one], the CC50 at 72 h in the series “in vitro” came out at 118 ± 10.5 µM. Moreover, in series [1], the “SI (index of selectivity, IS = LC50/EC50)” value is given as below 1.100 and the EC50 was above 112 µM.

For `O=C1CC(c2ccccc2)Sc2ccccc21` (stereo not shown) [Compound 1h, 2-Phenylthiochroman-4-one], the CC50 at 72 h in the series “in vitro” was above 41.6 µM. Further, the EC50 in series [1] stood at 44.1 ± 0.9 µM.

In “in vitro”, `O=C1CC(c2ccc(C(F)(F)F)cc2)Sc2ccccc21` (stereo not shown) [Compound 1i, 2-(4-(Trifluoromethyl)-phenyl)-thiochroman-4-one] registered a CC50 at 72 h above 649 µM. Moreover, in series [1], the “SI (index of selectivity, IS = LC50/EC50)” value is above 10.56 and the EC50 turned out to be 61.4 ± 1.62 µM.

In the series “in vitro”, `O=C1CC(c2ccc(C(F)(F)F)cc2)Sc2ccc(F)cc21` (stereo not shown) [Compound 1j, 6-Fluoro-2-(4-(trifluoromethyl)-phenyl)thiochroman-4-one] yielded a CC50 at 72 h of 129 ± 3.45 µM. In addition, in series [1], the “SI (index of selectivity, IS = LC50/EC50)” value is listed as 1.60 and the midpoint of the response, the EC50, lay at 80.3 ± 12.1 µM.

Regarding `O=C1CC(c2ccc(Cl)cc2)Sc2ccccc21` (stereo not shown) [Compound 1k, 2-(4-Chlorophenyl)-thiochroman-4-one], the CC50 at 72 h in “in vitro” was determined as 64.4 ± 3.98 µM. Also, in series [1], the “SI (index of selectivity, IS = LC50/EC50)” value was below 0.90 and the EC50 is above 72.8 µM.

Compound `O=C1CC(c2ccc(F)cc2)Sc2ccccc21` (stereo not shown) [Compound 1l, 2-(4-Fluorophenyl)-thiochroman-4-one] gave a CC50 at 72 h in the series “in vitro” of 72.9 ± 9.87 µM. Also, in series [1], the “SI (index of selectivity, IS = LC50/EC50)” value turned out to be 0.78 and the EC50 came out at 93.6 ± 11 µM.

For the compound `O=C1CC(c2ccc([N+](=O)[O-])cc2)Sc2ccccc21` (stereo not shown) [Compound 1m, 2-(4-Nitrophenyl)-thiochroman-4-one], the CC50 at 72 h in “in vitro” is above 701 µM. Also, the EC50 in series [1] is above 70.1 µM.

Regarding `O=c1ccsc2ccc([N+](=O)[O-])cc12` [Compound 2f, 6-Nitro-4H-thiochromen-4-one], the CC50 at 72 h in the series “in vitro” is above 965 µM. In series [1], the “SI (index of selectivity, IS = LC50/EC50)” value is recorded as above 26.26 and the response was half-maximal at 36.8 ± 1.74 µM (EC50).

For the compound `O=c1cc(-c2ccc(C(F)(F)F)cc2)sc2ccccc12` [Compound 2i, 2-(4-(Trifluoromethyl)-phenyl)-4H-thiochromen-4-one], the CC50 at 72 h in the series “in vitro” is 522 ± 314 µM. In series [1], the “SI (index of selectivity, IS = LC50/EC50)” value amounted to 3.24 and the EC50 worked out at 161 ± 20.5 µM.

The compound `O=c1cc(-c2ccc(C(F)(F)F)cc2)sc2ccc(F)cc12` [Compound 2j, 6-Fluoro-2-(4-(trifluoromethyl)-phenyl)-4H-thiochromen-4-one] yielded a CC50 at 72 h in the series “in vitro” of 51.4 ± 11.6 µM. In series [1], the “SI (index of selectivity, IS = LC50/EC50)” value came out at 0.98 and the EC50 worked out at 52.3 ± 8.92 µM.

Turning to `O=c1cc(-c2ccc(Cl)cc2)sc2ccccc12` [Compound 2k, 2-(4-Chlorophenyl)-4H-thiochromen-4-one], the CC50 at 72 h in the series “in vitro” was above 733 µM. In addition, the concentration for a half-maximal effect (EC50) in series [1] is above 73.3 µM.

`O=c1cc(-c2ccc(F)cc2)sc2ccccc12` [Compound 2l, 2-(4-Fluorophenyl)-4H-thiochromen-4-one] gave a CC50 at 72 h in the series “in vitro” of 503 ± 382 µM. In series [1], the “SI (index of selectivity, IS = LC50/EC50)” value was below 6.45 and the concentration giving a half-maximal response (EC50) is above 78 µM.

Compound `O=c1cc(-c2ccc([N+](=O)[O-])cc2)sc2ccccc12` [Compound 2m, 2-(4-nitrophenyl)-4H-thiochromen-4-one] gave a CC50 at 72 h in “in vitro” above 706 µM. Further, the EC50 in series [1] is above 70.6 µM.

`CC1CC(=O)c2ccccc2S1(=O)=O` (stereo not shown) [Compound 3a, 2-Methylthiochroman-4-one 1,1-dioxide] returned a CC50 at 72 h in “in vitro” above 825 µM. In series [1], this compound yielded an EC50 above 95.2 µM.

Regarding `CC1CC(=O)c2cc(F)ccc2S1(=O)=O` (stereo not shown) [Compound 3b, 6-Fluoro-2-methylthiochroman-4-one 1,1-dioxide], in “in vitro”, the CC50 at 72 h was above 876 µM. Also, the EC50 in series [1] was above 87.7 µM.

As for `O=C1CCS(=O)(=O)c2ccc(F)cc21` [Compound 3c, 6-Fluorothiochroman-4-one 1,1-dioxide], the CC50 at 72 h in the series “in vitro” is above 934 µM. For the same compound, in series [1], the EC50 is above 93.5 µM.

In turn, `O=C1CC(c2ccccc2)S(=O)(=O)c2ccccc21` (stereo not shown) [Compound 3h, 2-Phenylthiochroman-4-one 1,1-dioxide] returned a CC50 at 72 h in the series “in vitro” of 529 ± 52.9 µM. The compound also had an EC50 in series [1] of 217 ± 34.9 µM.

In turn, `O=C1CC(c2ccc(C(F)(F)F)cc2)S(=O)(=O)c2ccccc21` (stereo not shown) [Compound 3i, 2-(4-(Trifluoromethyl)-phenyl)-thiochroman-4-one 1,1-dioxide] had a CC50 at 72 h in the series “in vitro” of 62.9 ± 10.3 µM. In series [1], the “SI (index of selectivity, IS = LC50/EC50)” value is recorded as 0.74 and the EC50 is 84.8 ± 3.23 µM.

`O=C1C=C(c2ccc(C(F)(F)F)cc2)S(=O)(=O)c2ccc(F)cc21` [Compound 4j, 6-Fluoro-2-(4-(trifluoromethyl)-phenyl)-4H-thiochromen-4-one 1,1-dioxide]: the CC50 at 72 h in “in vitro” was above 561 µM.

The values are drawn from PMC6149949, “Synthesis and Evaluation of Thiochroman-4-One Derivatives as Potential Leishmanicidal Agents” (Molecules : A Journal of Synthetic Chemistry and Natural …, 2017).
